Test results as given in paper PMC12505902, “Inhibitors of trehalose-6-phosphate synthase activity in fungal pathogens compromise thermal tolerance pathways” (mBio, 2025).

Assays:
6xHis-CaTps1 = biological target: T1, 6xHis-CaTps1 (Candida albicans, UniProt Q92410); assay: Glo-melt thermal shift assay; assay type: binding; settings: 1 µM protein, 2 mM 4456dh (Fig 2 legend), incubated overnight at 4°C
T1 construct: Briefly, the full-length; thrombin cleavage site (pET-28a linker) (N); made in house; host or cells: E. coli BL21(DE3)pLysS
T1 sequence (Q92410 1-478): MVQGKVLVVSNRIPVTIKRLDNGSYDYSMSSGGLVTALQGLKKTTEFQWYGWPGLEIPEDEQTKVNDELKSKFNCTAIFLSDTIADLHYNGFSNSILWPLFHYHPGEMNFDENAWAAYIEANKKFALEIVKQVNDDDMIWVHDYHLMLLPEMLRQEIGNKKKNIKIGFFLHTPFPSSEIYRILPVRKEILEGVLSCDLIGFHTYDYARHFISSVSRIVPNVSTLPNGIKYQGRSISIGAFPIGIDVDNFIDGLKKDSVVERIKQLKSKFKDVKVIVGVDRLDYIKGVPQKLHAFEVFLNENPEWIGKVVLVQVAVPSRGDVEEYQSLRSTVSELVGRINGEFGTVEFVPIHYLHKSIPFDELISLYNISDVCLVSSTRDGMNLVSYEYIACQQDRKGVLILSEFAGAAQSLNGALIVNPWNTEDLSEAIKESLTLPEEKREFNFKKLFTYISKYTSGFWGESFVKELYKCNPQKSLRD
Procedure: (§1) Fig 2 4456dh binds Tps1 and inhibits Tps1 activity. (A) Structure of 4456dh. (B and C) Glo-melt thermal shift assays reveal 4456dh destabilizes 6xHis-CaTps1 (B) and 6xHis-CnTps1 (C). The first derivative of the raw data was used to determine the melting temperature of 1 µM 6xHis-CaTps1 (B) and 1 µM 6xHis-CnTps1 (C) treated without (black) or with 2 mM 4456dh (red). […] The resulting dose-response curves were fitted to a one-site binding model to extract Kd values; the SD was calculated using the Kd values from each independent experiment (n = 3). (F) Tps1 enzyme activity assay with 5 µM 6xHis-CaTps1 (F) and 6xHis-CnTps1 (G) ±1 mM 4456dh. Error bars represent SE. Comparison to control, untreated 6xHis-CaTps1, was performed using Student’s t-test; **P < 0.01 and ***P < 0.001.
(§2) Thermal shift assays were completed to determine if 4456dh binds Tps1. […]
(§3) 82 determined by SDS-PAGE analysis, were pooled and concentrated to 1 mg/mL for downstream […]
(§4) 93 The data were acquired with MO.Control 1.5.3 (NanoTemper Technologies GmbH). Recorded
(§5) 94 data were analyzed with MO.Affinity Analysis 2.2.7 (NanoTemper Technologies GmbH). […]
(§6) 100 2X Glo-melt dye. Thermal denaturation was measured using an RT-PCR thermocycler (BioRad) […]
(§7) 102 determined by identifying the inflection point of the derivative data. […]
(§8) 104 The catalytic activity of C. albicans Tps1 and C. neoformans Tps1 was measured via a continuous […]

6xHis-CnTps1 = 6xHis-CnTps1 (Cryptococcus neoformans var. grubii, UniProt J9VJZ1); assay: Glo-melt thermal shift assay; assay type: binding; settings: 1 µM protein, 2 mM 4456dh (Fig 2 legend), incubated overnight at 4°C
Procedure: as §1, §2, §3, §4, §5, §6, §7, §8

Chain of 6xHis-CnTps1 (J9VJZ1 entry or part of it): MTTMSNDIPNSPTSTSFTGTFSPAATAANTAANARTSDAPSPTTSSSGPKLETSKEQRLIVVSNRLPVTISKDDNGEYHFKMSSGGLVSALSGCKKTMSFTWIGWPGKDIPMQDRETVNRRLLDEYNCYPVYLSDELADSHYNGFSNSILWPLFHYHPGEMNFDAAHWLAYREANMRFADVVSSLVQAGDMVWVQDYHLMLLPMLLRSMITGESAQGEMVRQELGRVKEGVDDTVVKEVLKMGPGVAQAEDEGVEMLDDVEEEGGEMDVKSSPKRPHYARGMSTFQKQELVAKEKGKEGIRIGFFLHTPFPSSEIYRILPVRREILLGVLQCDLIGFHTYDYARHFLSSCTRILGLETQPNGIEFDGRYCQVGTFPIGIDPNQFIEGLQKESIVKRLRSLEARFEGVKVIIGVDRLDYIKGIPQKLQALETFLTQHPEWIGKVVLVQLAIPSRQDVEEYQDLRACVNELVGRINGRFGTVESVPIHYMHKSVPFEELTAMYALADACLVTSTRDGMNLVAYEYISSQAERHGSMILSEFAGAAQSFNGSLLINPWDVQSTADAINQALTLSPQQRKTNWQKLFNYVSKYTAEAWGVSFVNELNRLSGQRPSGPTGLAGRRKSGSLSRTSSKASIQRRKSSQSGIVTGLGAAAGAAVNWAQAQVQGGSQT

For Cn1cc(-c2csc(NC(=O)Cc3ccccn3)n2)cn1 [Compound 4456dh], the “effect on melting temperature” value (6xHis-CaTps1) was “decreased the melting temperature” and the “effect on melting temperature” value (6xHis-CnTps1) was “decreased the melting temperature”.
